Laboratory results: PMC8032764 (Scientific Reports, 2021)
Read-outs that look alike come from different tables or passages of the source.

Columns and labels:
[1] = biological target: T1, human GABAA α2β3γ2 receptors (Homo sapiens, UniProt P18507+P47869); assay: [3H]-flumazenil competition binding, HEK293 membranes; settings: 1 nM [3H]-flumazenil
T1 construct: expressed in transfected cells; host or cells: HEK293-EBNA, transient
Method: (§1) HEK293-EBNA cells adapted to grow in suspension were transiently transfected with the plasmids containing the desired GABAA receptor subunit cDNAs at α, β, γ, 1:1:2 ratio using XtremeGENE Q2 (Cat. No. 03045595001, Roche Applied Science, RAS, Rotkreuz, Switzerland) as previously described. GABAA α1β2γ2, α2β3γ2, α3β3γ2, α4β3γ2, α5β3γ2 and α6β3γ2 receptor subtypes were expressed in this system. 48 h post transfection, the cells were harvested and washed three times with cold PBS and frozen at − 80 °C.
(§2) Non-specific binding was determined in the presence of 10 μM diazepam.

[2] = biological target: T2, human GABAA α3β3γ2 receptors (Homo sapiens, UniProt P18507+P34903); assay: as above; settings: 1 nM [3H]-flumazenil
T2 construct: expressed in transfected cells; host or cells: HEK293-EBNA, transient
Method: as §1, §2

Benzodiazepine (central) = assay: Cerep binding; settings: 10 μM; [3H]flunitrazepam; rat cerebral cortex
[3] = system: T3, Benzodiazepine (peripheral); assay: Cerep binding; settings: 10 μM; [3H]PK 11195; rat heart
T3 construct: tissue Eurofins Cerep SA; host or cells: rat heart

Dopamine D1 = system: T4, Dopamine D1; assay: Cerep binding; parameters: species or system human; settings: 10 μM; [3H]SCH 23390; hum. recomb. (CHO)
T4 construct: host or cells: CHO

Muscarinic M1 = system: T5, Muscarinic M1; assay: Cerep binding; parameters: species or system human; settings: 10 μM; [3H]pirenzepine; hum. recomb. (CHO)
T5 construct: host or cells: CHO

Prostanoid IP (PGI2) = system: T6, Prostanoid IP (PGI2); assay: Cerep binding; parameters: species or system human; settings: 10 μM; [3H]iloprost; hum. recomb. (HEK-293)
T6 construct: host or cells: HEK-293

Purinergic P2X = assay: Cerep binding; settings: 10 μM; [3H]α,β-MeATP; rat urinary bladder
Serotonin 5-HT1B = system: T7, Serotonin 5-HT1B; assay: Cerep binding; settings: 10 μM; [125I]CYP; rat cerebral cortex
T7 construct: purchased Eurofins Cerep

Serotonin 5-HT5a = system: T8, Serotonin 5-HT5a; assay: Cerep binding; parameters: species or system human; settings: 10 μM; [3H]LSD; hum. recomb. (CHO)
T8 construct: purchased Eurofins Cerep

Serotonin 5-HT6 = system: T9, Serotonin 5-HT6; assay: Cerep binding; parameters: species or system human; settings: 10 μM; [3H]LSD; hum. recomb. (CHO)
T9 construct: purchased Eurofins Cerep

[4] = system: T10, Calcitonin gene related peptide (CGRP); assay: Cerep binding; parameters: species or system human; settings: 10 μM; [125I]hCGRPα; hum. recomb. (CHO)
T10 construct: purchased Eurofins Cerep

Cholecystokinin CCK1 = system: T11, Cholecystokinin CCK1; assay: Cerep binding; parameters: species or system human; settings: 10 μM; [125I]CCK-8s; hum. recomb. (CHO)
T11 construct: purchased Eurofins Cerep

Chemokine CCR1 = system: T12, Chemokine CCR1; assay: Cerep binding; parameters: species or system human; settings: 10 μM; [125I]MIP-1a; hum. recomb. (HEK-293)
T12 construct: purchased Eurofins Cerep

Neurokinin NK1 = system: T13, Neurokinin NK1; assay: Cerep binding; parameters: species or system human; settings: 10 μM; [125I]BH-SP; hum., U-373MG cells
T13 construct: purchased Eurofins Cerep

Opioid δ2 = system: T14, Opioid δ2; assay: Cerep binding; parameters: species or system human; settings: 10 μM; [3H]DADLE; hum. recomb. (CHO)
T14 construct: host or cells: CHO

[5] = system: T15, Norepinephrine transporter; assay: Cerep binding; parameters: species or system human; settings: 10 μM; [3H]nisoxetine; hum. recomb. (CHO)
T15 construct: host or cells: CHO

Serotonin transporter = system: T16, Serotonin transporter; assay: Cerep binding; parameters: species or system human; settings: 10 μM; [3H]imipramine; hum. recomb. (CHO)
T16 construct: host or cells: CHO

Glucocorticoid = system: T17, Glucocorticoid; assay: Cerep binding; parameters: species or system human; settings: 10 μM; [3H]dexamethasone; hum., IM-9 cells, cytosol
T17 construct: hum., IM-9 cells,; host or cells: IM-9 cells, cytosol

GABAA-α5 receptors = biological target: T18, GABAA-α5 receptors (Rattus norvegicus, UniProt P18508+P19969); assay: In vivo [3H]-Ro 15-4513 binding with ex vivo autoradiography (receptor occupancy); settings: hippocampus, Hill fit
T18 construct: from tissue; host or cells: rat brain (hippocampus), in vivo with ex vivo autoradiography
Method: Brains and blood were collected from each animal. Brains were divided in two halves along their sagittal axis and frozen in dry ice. […] Half of the brain was used for autoradiography, as described earlier. […] The percentage of receptor occupancy (y) was calculated from: y=1001-Sbasmisanil/Svehicle.
The curve was fitted to the experimental results using the Hill equation (Eq. (1) with Hill coefficient D = 1).

[6] = Plasma concentration in PET study; assay type: in vivo; settings: human
Method: The study was single-blind, i.e., subjects were blinded to dose. Blood sampling was performed at four different timepoints starting 30 min before the post dose PET scan.

[7] = Plasma exposure in EEG study; assay type: in vivo; settings: human, oral, 240 mg twice daily, mean ± SD
[8] = Pharmacokinetics, single oral dosing, SAD study BP25129; assay type: in vivo, Human; settings: for bioavailability / Tmax / AUC(0-t) / Cmax: human, plasma, tablet, n = 6 male; for Tmax: median, read-out: Tmax (range); for AUC(0-t) / Cmax: ± percent coefficient of variation
human GABAA α5β3γ2 = human GABAA α5β3γ2 (Homo sapiens, UniProt P18507+P31644); assay: [3H]-Ro-15 4513 displacement assay; assay type: binding; parameters: expressed in transfected cells; host or cells: HEK293-EBNA, transient
Method: IC50 values were derived from the inhibition curve and Ki values were calculated as described below.

## Cc1onc(-c2ccc(F)cc2)c1COc1ccc(C(=O)N2CCS(=O)(=O)CC2)cn1 [basmisanil]
[1]
  Ki: 458 ± 27 nM
[2]
  Ki: 510 ± 21 nM
Benzodiazepine (central)
  % Inhibition: 76%
[3]
  % Inhibition: -10%
Dopamine D1
  % Inhibition: 0%
Muscarinic M1
  % Inhibition: 6%
Prostanoid IP (PGI2)
  % Inhibition: -1%
Purinergic P2X
  % Inhibition: -7%
Serotonin 5-HT1B
  % Inhibition: 0%
Serotonin 5-HT5a
  % Inhibition: 5%
Serotonin 5-HT6
  % Inhibition: 7%
[4]
  % Inhibition: -6%
Cholecystokinin CCK1
  % Inhibition: 10%
Chemokine CCR1
  % Inhibition: -2%
Neurokinin NK1
  % Inhibition: 37%
Opioid δ2
  % Inhibition: 8%
[5]
  % Inhibition: 11%
Serotonin transporter
  % Inhibition: 5%
Glucocorticoid
  % Inhibition: -2%
GABAA-α5 receptors; free plasma, read-out: free plasma concentration for half-maximal receptor occupancy (EC50)
  EC50: 171 ± 16 nM
GABAA-α5 receptors; total plasma, read-out: plasma level for half-maximal receptor occupancy (EC50) (converted)
  EC50: 1220 nM
[6]; subject 11010, 40 mg, 3.75 h prior to scan
  concentration at 3.75 h: 592 ng/mL
[6]; subject 11020, 160 mg, 3.12 h prior to scan
  concentration at 3.12 h: 2280 ng/mL
[6]; subject 11021, 160 mg, 3.00 h prior to scan
  concentration at 3 h: 2550 ng/mL
[6]; subject 13010, 40 mg, 2.63 h prior to scan
  concentration at 2.63 h: 422 ng/mL
[6]; subject 13030, 1000 mg, 4.75 h prior to scan
  concentration at 4.75 h: 2200 ng/mL
[6]; subject 13031, 1000 mg, 4.77 h prior to scan
  concentration at 4.77 h: 3350 ng/mL
[6]; subject 13040, 20 mg, 1.48 h prior to scan
  concentration at 1.48 h: 111 ng/mL
[6]; subject 13041, 20 mg, 2.20 h prior to scan
  concentration at 2.2 h: 398 ng/mL
[6]; subject 13050, 80 mg, 2.43 h prior to scan
  concentration at 2.43 h: 1000 ng/mL
[7]; day 14, 1 h post morning dose
  concentration at 1 h: 3280 ± 888 ng/mL
[7]; day 14, 4 h post morning dose
  concentration at 4 h: 4030 ± 842 ng/mL
[8]; 45 mg oral
  bioavailability: ~75%
  Tmax: 3.5 h
  AUC(0-t): 6040 ± 38.7 ng·h/mL
  Cmax: 767 ± 15.4 ng/mL
[8]; 160 mg oral
  bioavailability: ~75%
  Tmax: 4 h
  AUC(0-t): 20300 ng·h/mL
  Cmax: 1860 ± 14.3 ng/mL
[8]; 330 mg oral
  bioavailability: ~75%
  Tmax: 4 h
  AUC(0-t): 30500 ng·h/mL
  Cmax: 2120 ± 24 ng/mL
[8]; single dose 160 mg
  maximum plasma concentration: 1860 ng/mL
[8]; single dose 660 mg
  maximum plasma concentration: 3710 ng/mL
[8]; single dose 1250 mg
  maximum plasma concentration: 4890 ng/mL
Human GABAA α5β3γ2
  Ki: 7.6 ± 0.3 nM
